# Earlier results, collected in US7618650B2, “Combination of a hypnotic agent and substituted bis aryl and heteroaryl compound and therapeutic application thereof” (Aventis Pharmaceuticals Inc, priority 2005, dated 2009).
# Conditions: average dosage between 5 and 10 mg in a conventional formulation
smiles,measurement,value
"Cc1ccc(-c2nc3ccc(C)cn3c2CC(=O)N(C)C)cc1 [Zolpidem, zolpidem]","half life, average value",about 2.4 hours
